# Test results taken from PubChem BioAssay (NCI).
#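 Briefly, cells in 96-well plates were exposed to five compound concentrations for 48 h, and endpoints were estimated by linear interpolation. At the GI50, growth is halved. TGI denotes the concentration required for complete inhibition of growth.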
# What was measured:
# Assay in all cases: DTP human tumour cell line panel, 48 h
# SF-539 CNS = system: SF-539 CNS
# MDA-MB-435 = system: MDA-MB-435
# RPMI-8226 leukemia = system: RPMI-8226 leukemia
# OVCAR-5 ovarian = system: OVCAR-5 ovarian
# SK-MEL-2 melanoma = system: SK-MEL-2 melanoma
# LOX IMVI melanoma = system: LOX IMVI melanoma
# OVCAR-3 ovarian = system: OVCAR-3 ovarian
# MDA-MB-468 breast = system: MDA-MB-468 breast
# K-562 leukemia = system: K-562 leukemia
# CAKI-1 renal = system: CAKI-1 renal
# SNB-19 CNS = system: SNB-19 CNS
# MALME-3M melanoma = system: MALME-3M melanoma
# A549 NSCLC = system: A549 NSCLC
# OVCAR-8 ovarian = system: OVCAR-8 ovarian
# RXF 393 renal = system: RXF 393 renal
# NCI-H23 lung = system: NCI-H23 lung
# SK-MEL-5 melanoma = system: SK-MEL-5 melanoma
# MCF7 breast = system: MCF7 breast
# SF-268 CNS = system: SF-268 CNS
# SK-MEL-28 melanoma = system: SK-MEL-28 melanoma
# DU-145 prostate = system: DU-145 prostate
# MDA-MB-231 breast = system: MDA-MB-231 breast
# SK-OV-3 ovarian = system: SK-OV-3 ovarian
# SR leukemia = system: SR leukemia
# COLO 205 colon = system: COLO 205 colon
# HL-60(TB) leukemia = system: HL-60(TB) leukemia
# HT29 colon = system: HT29 colon
# EKVX NSCLC = system: EKVX NSCLC
# TK-10 renal = system: TK-10 renal
# UO-31 renal = system: UO-31 renal
# ACHN renal = system: ACHN renal
# NCI-H522 lung = system: NCI-H522 lung
# UACC-62 melanoma = system: UACC-62 melanoma
# T-47D breast = system: T-47D breast
# NCI-H226 lung = system: NCI-H226 lung
# HCC-2998 colon = system: HCC-2998 colon
# SW-620 colon = system: SW-620 colon
# IGROV1 ovarian = system: IGROV1 ovarian
# PC-3 prostate = system: PC-3 prostate
# OVCAR-4 ovarian = system: OVCAR-4 ovarian
# SN12C renal = system: SN12C renal
# U251 CNS = system: U251 CNS
# M14 melanoma = system: M14 melanoma
# A498 renal = system: A498 renal
# HOP-62 NSCLC = system: HOP-62 NSCLC
# MOLT-4 leukemia = system: MOLT-4 leukemia
# SF-295 CNS = system: SF-295 CNS
# HOP-92 NSCLC = system: HOP-92 NSCLC
# UACC-257 melanoma = system: UACC-257 melanoma
# NCI-H460 lung = system: NCI-H460 lung
# CCRF-CEM leukemia = system: CCRF-CEM leukemia
# HCT-15 colon = system: HCT-15 colon
# 786-0 renal = system: 786-0 renal
# SNB-75 CNS = system: SNB-75 CNS
smiles,measurement,setting,value
C=C1CC[C@@H]2[C@]3(C)COC(c4cn(-c5ccccc5)nc4-c4cccc([N+](=O)[O-])c4)O[C@@H]3CC[C@@]2(C)[C@@H]1C/C=C1/C(=O)OC[C@H]1O (stereo partly drawn),GI50,SF-539 CNS,1.74 µM
same,TGI,SF-539 CNS,3.18 µM
same,GI50,MDA-MB-435,3.03 µM
same,TGI,MDA-MB-435,18.3 µM
same,GI50,RPMI-8226 leukemia,2.45 µM
same,TGI,RPMI-8226 leukemia,> 100 µM
same,GI50,OVCAR-5 ovarian,2.06 µM
same,TGI,OVCAR-5 ovarian,5.05 µM
same,GI50,SK-MEL-2 melanoma,1.78 µM
same,TGI,SK-MEL-2 melanoma,3.51 µM
same,GI50,LOX IMVI melanoma,1.72 µM
same,TGI,LOX IMVI melanoma,3.34 µM
same,GI50,OVCAR-3 ovarian,1.87 µM
same,TGI,OVCAR-3 ovarian,3.75 µM
same,GI50,MDA-MB-468 breast,1.76 µM
same,TGI,MDA-MB-468 breast,3.52 µM
same,GI50,K-562 leukemia,2.16 µM
same,TGI,K-562 leukemia,> 100 µM
same,GI50,CAKI-1 renal,2.81 µM
same,TGI,CAKI-1 renal,> 100 µM
same,GI50,SNB-19 CNS,3.65 µM
same,TGI,SNB-19 CNS,15 µM
same,GI50,MALME-3M melanoma,1.78 µM
same,TGI,MALME-3M melanoma,3.55 µM
same,GI50,A549 NSCLC,3.62 µM
same,TGI,A549 NSCLC,> 100 µM
same,GI50,OVCAR-8 ovarian,1.9 µM
same,TGI,OVCAR-8 ovarian,5.04 µM
same,GI50,RXF 393 renal,1.62 µM
same,TGI,RXF 393 renal,3.2 µM
same,GI50,NCI-H23 lung,1.83 µM
same,TGI,NCI-H23 lung,3.55 µM
same,GI50,SK-MEL-5 melanoma,1.63 µM
same,TGI,SK-MEL-5 melanoma,3 µM
same,GI50,MCF7 breast,2.64 µM
same,TGI,MCF7 breast,> 100 µM
same,GI50,SF-268 CNS,7.65 µM
same,TGI,SF-268 CNS,> 100 µM
same,GI50,SK-MEL-28 melanoma,2.04 µM
same,TGI,SK-MEL-28 melanoma,4.06 µM
same,GI50,DU-145 prostate,4.11 µM
same,TGI,DU-145 prostate,24.3 µM
same,GI50,MDA-MB-231 breast,1.84 µM
same,TGI,MDA-MB-231 breast,3.44 µM
same,GI50,SK-OV-3 ovarian,29.8 µM
same,TGI,SK-OV-3 ovarian,> 100 µM
same,GI50,SR leukemia,3.46 µM
same,TGI,SR leukemia,> 100 µM
same,GI50,COLO 205 colon,2.41 µM
same,TGI,COLO 205 colon,5.06 µM
same,GI50,HL-60(TB) leukemia,1.73 µM
same,TGI,HL-60(TB) leukemia,> 100 µM
same,GI50,HT29 colon,1.82 µM
same,TGI,HT29 colon,4.26 µM
same,GI50,EKVX NSCLC,2.75 µM
same,TGI,EKVX NSCLC,7.98 µM
same,GI50,TK-10 renal,2.22 µM
same,TGI,TK-10 renal,5.82 µM
same,GI50,UO-31 renal,1.82 µM
same,TGI,UO-31 renal,5.46 µM
same,GI50,ACHN renal,1.89 µM
same,TGI,ACHN renal,3.62 µM
same,GI50,NCI-H522 lung,1.75 µM
same,TGI,NCI-H522 lung,3.41 µM
same,GI50,UACC-62 melanoma,1.69 µM
same,TGI,UACC-62 melanoma,3.46 µM
same,GI50,T-47D breast,1.76 µM
same,TGI,T-47D breast,5.02 µM
same,GI50,NCI-H226 lung,2.38 µM
same,TGI,NCI-H226 lung,6.59 µM
same,GI50,HCC-2998 colon,1.92 µM
same,TGI,HCC-2998 colon,3.53 µM
same,GI50,SW-620 colon,2.21 µM
same,TGI,SW-620 colon,5.13 µM
same,GI50,IGROV1 ovarian,2.08 µM
same,TGI,IGROV1 ovarian,4.27 µM
same,GI50,PC-3 prostate,2.75 µM
same,TGI,PC-3 prostate,9.04 µM
same,GI50,OVCAR-4 ovarian,4.05 µM
same,TGI,OVCAR-4 ovarian,> 100 µM
same,GI50,SN12C renal,2.93 µM
same,TGI,SN12C renal,10.3 µM
same,GI50,U251 CNS,1.74 µM
same,TGI,U251 CNS,3.35 µM
same,GI50,M14 melanoma,2.08 µM
same,TGI,M14 melanoma,4.52 µM
same,GI50,A498 renal,18.9 µM
same,TGI,A498 renal,45.4 µM
same,GI50,HOP-62 NSCLC,3.15 µM
same,TGI,HOP-62 NSCLC,12.4 µM
same,GI50,MOLT-4 leukemia,2.87 µM
same,TGI,MOLT-4 leukemia,> 100 µM
same,GI50,SF-295 CNS,1.68 µM
same,TGI,SF-295 CNS,3.19 µM
same,GI50,HOP-92 NSCLC,1.86 µM
same,TGI,HOP-92 NSCLC,3.64 µM
same,GI50,UACC-257 melanoma,1.8 µM
same,TGI,UACC-257 melanoma,3.68 µM
same,GI50,NCI-H460 lung,2.27 µM
same,TGI,NCI-H460 lung,4.8 µM
same,GI50,CCRF-CEM leukemia,1.14 µM
same,TGI,CCRF-CEM leukemia,5.01 µM
same,GI50,HCT-15 colon,1.74 µM
same,TGI,HCT-15 colon,3.58 µM
same,GI50,786-0 renal,3.04 µM
same,TGI,786-0 renal,10.3 µM
same,GI50,SNB-75 CNS,7.34 µM
same,TGI,SNB-75 CNS,50.1 µM
